The supplement of paper PMC10307832

compound: CC(O)(CS(=O)(=O)c1ccc(F)cc1)C(=O)Nc1ccc(C#N)c(C(F)(F)F)c1 [Bicalutamide] + C[C@]1(O)C[C@@H](c2nc(-c3ccc4ccc(-c5ccccc5)nc4c3)c3c(N)nccn32)C1 [Linsitinib] (partner 1 µM); assay: relative viability (nuclei count vs DMSO), 5 days (fraction); higher = more cells survive; conditions: first compound 0.08 µM
In short: (§1)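 Lung cancer cell lines were seeded in 1536-well plates and dosed by pin tool the next day, with either a single drug or a fixed anchor-drug dose combined with five library-drug doses (not always all listed) spaced in √10 steps. Five days later, one step fixed the cells and stained their nuclei (final 0.05% Triton X-100, 1% formaldehyde, 1 ug/ml Hoechst), and nuclei were counted on 4× images. Relative viability is the nuclei count in treated wells divided by the count in vehicle wells, and each value is the median of duplicate plates.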

Row | Cell Line | relative viability
1 | LXF-289 | 0.962
2 | NCI-H2347 | 1.1
3 | NCI-H650 | 0.906
4 | CAL-12T | 0.69
5 | NCI-H1651 | 0.966
6 | EPLC-272H | 1.17
7 | NCI-H23 | 0.584
8 | NCI-H1792 | 0.585
9 | NCI-H1355 | 0.781
10 | NCI-H322M | 0.94
11 | NCI-H1437 | 1.01
12 | NCI-H1755 | 0.99
13 | NCI-H2085 | 0.856
14 | HCC-15 | 0.826
15 | NCI-H1793 | 0.731
16 | PC-3 [JPC-3] | 0.927
17 | EKVX | 1.06
18 | LC-2-ad | 0.818
19 | NCI-H1944 | 1.07
20 | NCI-H1975 | 0.947
21 | SK-LU-1 | 1.24
22 | NCI-H358 | 0.763
23 | NCI-H661 | 0.538
24 | RERF-LC-KJ | 0.868

same assay, conditions: first compound 0.253 µM

Row | Cell Line | relative viability
25 | LXF-289 | 0.92
26 | NCI-H2347 | 0.944
27 | NCI-H650 | 1.07
28 | CAL-12T | 0.777
29 | NCI-H1651 | 0.903
30 | EPLC-272H | 1.13
31 | NCI-H23 | 0.526
32 | NCI-H1792 | 0.412
33 | NCI-H1355 | 0.782
34 | NCI-H322M | 0.976
35 | NCI-H1437 | 1
36 | NCI-H1755 | 0.988
37 | NCI-H2085 | 1.04
38 | HCC-15 | 0.837
39 | NCI-H1793 | 0.568
40 | PC-3 [JPC-3] | 1.02
41 | EKVX | 1.04
42 | LC-2-ad | 0.796
43 | NCI-H1944 | 1.15
44 | NCI-H1975 | 0.917
45 | SK-LU-1 | 1.29
46 | NCI-H358 | 0.65
47 | NCI-H661 | 0.63
48 | RERF-LC-KJ | 0.85

same assay, conditions: first compound 0.8 µM

Row | Cell Line | relative viability
49 | LXF-289 | 1
50 | NCI-H2347 | 1.02
51 | NCI-H650 | 1.1
52 | CAL-12T | 1.04
53 | NCI-H1651 | 1.1
54 | EPLC-272H | 1.33
55 | NCI-H23 | 0.498
56 | NCI-H1792 | 0.549
57 | NCI-H1355 | 0.957
58 | NCI-H322M | 1.02
59 | NCI-H1437 | 1.28
60 | NCI-H1755 | 1.02
61 | NCI-H2085 | 0.938
62 | HCC-15 | 0.932
63 | NCI-H1793 | 0.894
64 | PC-3 [JPC-3] | 0.986
65 | EKVX | 1.06
66 | LC-2-ad | 0.847
67 | NCI-H1944 | 1.27
68 | NCI-H1975 | 1.1
69 | SK-LU-1 | 1.17
70 | NCI-H358 | 0.841
71 | NCI-H661 | 0.612
72 | RERF-LC-KJ | 0.94

same assay, conditions: first compound 2.53 µM

Row | Cell Line | relative viability
73 | LXF-289 | 0.972
74 | NCI-H2347 | 0.934
75 | NCI-H650 | 0.489
76 | CAL-12T | 0.814
77 | NCI-H1651 | 0.913
78 | EPLC-272H | 1.16
79 | NCI-H23 | 0.454
80 | NCI-H1792 | 0.48
81 | NCI-H1355 | 0.805
82 | NCI-H322M | 1.04
83 | NCI-H1437 | 0.965
84 | NCI-H1755 | 0.958
85 | NCI-H2085 | 0.794
86 | HCC-15 | 0.969
87 | NCI-H1793 | 0.686
88 | PC-3 [JPC-3] | 1.02
89 | EKVX | 0.894
90 | LC-2-ad | 0.891
91 | NCI-H1944 | 1.14
92 | NCI-H1975 | 0.656
93 | SK-LU-1 | 0.817
94 | NCI-H358 | 0.786
95 | NCI-H661 | 0.61
96 | RERF-LC-KJ | 0.904

compound: CC(O)(CS(=O)(=O)c1ccc(F)cc1)C(=O)Nc1ccc(C#N)c(C(F)(F)F)c1 [Bicalutamide] + CC(=O)Nc1cccc(-n2c(=O)n(C3CC3)c(=O)c3c(Nc4ccc(I)cc4F)n(C)c(=O)c(C)c32)c1 [Trametinib] (partner 0.02 µM); assay: as above; conditions: first compound 0.08 µM
In short: as §1

Row | Cell Line | relative viability
97 | LXF-289 | 0.667
98 | NCI-H2347 | 0.283
99 | NCI-H650 | 1.04
100 | CAL-12T | 0.37
101 | NCI-H1651 | 0.836
102 | EPLC-272H | 0.315
103 | NCI-H23 | 0.418
104 | NCI-H1792 | 0.439
105 | NCI-H1355 | 0.432
106 | NCI-H322M | 0.537
107 | NCI-H1437 | 0.598
108 | NCI-H1755 | 0.738
109 | NCI-H2085 | 0.513
110 | HCC-15 | 0.384
111 | NCI-H1793 | 0.382
112 | PC-3 [JPC-3] | 0.756
113 | EKVX | 0.319
114 | LC-2-ad | 0.892
115 | NCI-H1944 | 0.408
116 | NCI-H1975 | 0.323
117 | SK-LU-1 | 0.52
118 | NCI-H358 | 0.161
119 | NCI-H661 | 0.631
120 | RERF-LC-KJ | 0.968

same assay, conditions: first compound 0.253 µM

Row | Cell Line | relative viability
121 | LXF-289 | 0.636
122 | NCI-H2347 | 0.287
123 | NCI-H650 | 1.01
124 | CAL-12T | 0.343
125 | NCI-H1651 | 0.773
126 | EPLC-272H | 0.281
127 | NCI-H23 | 0.317
128 | NCI-H1792 | 0.362
129 | NCI-H1355 | 0.383
130 | NCI-H322M | 0.541
131 | NCI-H1437 | 0.475
132 | NCI-H1755 | 0.774
133 | NCI-H2085 | 0.554
134 | HCC-15 | 0.338
135 | PC-3 [JPC-3] | 0.737
136 | EKVX | 0.31
137 | LC-2-ad | 0.86
138 | NCI-H1944 | 0.393
139 | NCI-H1975 | 0.412
140 | SK-LU-1 | 0.565
141 | NCI-H358 | 0.128
142 | NCI-H661 | 0.534
143 | RERF-LC-KJ | 0.909

same assay, conditions: first compound 0.8 µM

Row | Cell Line | relative viability
144 | LXF-289 | 0.734
145 | NCI-H2347 | 0.307
146 | NCI-H650 | 1.12
147 | CAL-12T | 0.398
148 | NCI-H1651 | 0.932
149 | EPLC-272H | 0.332
150 | NCI-H23 | 0.434
151 | NCI-H1792 | 0.542
152 | NCI-H1355 | 0.447
153 | NCI-H322M | 0.502
154 | NCI-H1437 | 0.612
155 | NCI-H1755 | 0.776
156 | NCI-H2085 | 0.535
157 | HCC-15 | 0.412
158 | NCI-H1793 | 0.448
159 | PC-3 [JPC-3] | 0.697
160 | EKVX | 0.359
161 | LC-2-ad | 0.961
162 | NCI-H1944 | 0.421
163 | NCI-H1975 | 0.386
164 | SK-LU-1 | 0.576
165 | NCI-H358 | 0.125
166 | NCI-H661 | 0.621
167 | RERF-LC-KJ | 1.07

same assay, conditions: first compound 2.53 µM

Row | Cell Line | relative viability
168 | LXF-289 | 0.656
169 | NCI-H2347 | 0.249
170 | NCI-H650 | 0.934
171 | CAL-12T | 0.264
172 | NCI-H1651 | 0.83
173 | EPLC-272H | 0.281
174 | NCI-H23 | 0.399
175 | NCI-H1792 | 0.434
176 | NCI-H1355 | 0.472
177 | NCI-H322M | 0.503
178 | NCI-H1437 | 0.476
179 | NCI-H1755 | 0.751
180 | NCI-H2085 | 0.404
181 | HCC-15 | 0.371
182 | NCI-H1793 | 0.439
183 | PC-3 [JPC-3] | 0.719
184 | EKVX | 0.283
185 | LC-2-ad | 0.907
186 | NCI-H1944 | 0.397
187 | NCI-H1975 | 0.339
188 | SK-LU-1 | 0.443
189 | NCI-H358 | 0.132
190 | NCI-H661 | 0.558
191 | RERF-LC-KJ | 0.81

compound: C(C(=O)C(=O)O)Br [Bromopyruvate] + Cc1nc(NC(=O)N2CCC[C@H]2C(N)=O)sc1-c1ccnc(C(C)(C)C(F)(F)F)c1 [Alpelisib] (partner 2 µM); assay: as above; conditions: first compound 1 µM
In short: as §1

Row | Cell Line | relative viability
192 | LXF-289 | 1.07
193 | NCI-H2347 | 1.07
194 | NCI-H650 | 1.03
195 | CAL-12T | 1.17
196 | NCI-H1651 | 0.881
197 | EPLC-272H | 1.05
198 | NCI-H23 | 0.607
199 | NCI-H1792 | 0.715
200 | NCI-H1355 | 0.833
201 | NCI-H322M | 0.804
202 | NCI-H1437 | 0.967
203 | NCI-H1755 | 0.95
